Assay results: patent publication US20100311643A1, “USE OF GLP-1 AS A THERAPEUTIC AGENT” (priority 2007, published 2010)

Key:
HIV-1IIIB = assay: HIV-1 antiviral assay (CPE reduction, MTS staining); assay type: cell-based; details: test peptide 10 micrograms per ml; 6 days post-infection; triplicate
Pseudomonas aeruginosa = assay type: cell-based; details: 5 micrograms per ml
Streptococcus pneumoniae = assay type: cell-based; details: 5 micrograms per ml
MRSA = details: 5 micrograms per ml
in vitro [1] = details: human, CEM-SS cells (uninfected, cells plus peptide only)
in vitro [2] = details: human, MRC-5 cells (embryonal lung fibroblasts)
[3] = Cytotoxicity in the HBV assay (dye uptake cell viability); details: human

Row | Structure (SMILES) | % CPE reduction in HIV-1 infected CEM-SS cells (HIV-1IIIB) | % inhibition (Pseudomonas aeruginosa) | % inhibition (Streptococcus pneumoniae) | % inhibition (MRSA) | viability at 10 micrograms per ml (in vitro [1]) | viability at 144 h (in vitro [2]) | viability at 144 h, 10 micrograms per ml [3]
1 | Cc1cn([C@H]2C[C@H](N=[N+]=[N-])[C@@H](CO)O2)c(=O)[nH]c1=O [AZT] | 99% | – | – | – | – | – | –
2 | CC[C@H](C)[C@H](NC(=O)[C@H](Cc1ccccc1)NC(=O)[C@H](CCC(=O)O)NC(=O)[C@H](CCCCN)NC(=O)[C@H](C)NC(=O)[C@H](C)NC(=O)[C@H](CCC(N)=O)NC(=O)CNC(=O)[C@H](CCC(=O)O)NC(=O)[C@H](CC(C)C)NC(=O)[C@H](Cc1ccc(O)cc1)NC(=O)[C@H](CO)NC(=O)[C@H](CO)NC(=O)[C@@H](NC(=O)[C@H](CC(=O)O)NC(=O)[C@H](CO)NC(=O)[C@@H](NC(=O)[C@H](Cc1ccccc1)NC(=O)[C@@H](NC(=O)CNC(=O)[C@H](CCC(=O)O)NC(=O)[C@H](C)NC(=O)[C@H](Cc1c[nH]cn1)NC(=O)[C@H](CCCNC(=N)N)NC(=O)[C@H](CCC(=O)O)NC(=O)[C@H](Cc1ccccc1)NC(=O)[C@H](CCC(=O)O)NC(=O)[C@H](CC(=O)O)NC(=O)[C@@H](N)Cc1c[nH]cn1)[C@@H](C)O)[C@@H](C)O)C(C)C)C(=O)N[C@@H](C)C(=O)N[C@@H](Cc1c[nH]c2ccccc12)C(=O)N[C@@H](CC(C)C)C(=O)N[C@H](C(=O)N[C@@H](CCCCN)C(=O)NCC(=O)N[C@@H](CCCNC(=N)N)C(=O)NCC(=O)O)C(C)C [GLP-1] | – | 0.0% | 0.0% | 0.0% | 100% | 100% | 95.8%
